This passage reports TGI and GI50 results from PubChem BioAssay (NCI).

Test systems include ACHN renal; CCRF-CEM leukemia; KM12 colon; LOX IMVI melanoma; MDA-MB-435; SF-268 CNS; SK-MEL-28 melanoma; SK-MEL-5 melanoma; UACC-62 melanoma; UO-31 renal.
Common to all, as to experiment: NCI anticancer screen, dose series, 48 h

The structures appear in SMILES notation.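 Five compound concentrations were applied to cells in 96-well plates for 48 hours; endpoints were derived by simple linear interpolation of the resulting dose-response curve. At the GI50, growth is halved. TGI: total growth inhibition.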 Some results are limits rather than exact numbers.

On to `CCOc1ccc(/C=C2\NC(=S)N(/C=C3\C(=O)Oc4ccccc4C3=O)C2=O)cc1`, for which the TGI came out at 56.3 µM in the experiment on ACHN renal; 40.4 µM in the experiment with CCRF-CEM leukemia; 69.2 µM with KM12 colon; 87.5 µM in the experiment on LOX IMVI melanoma; 78.3 µM in the experiment on MDA-MB-435; 68 µM in the experiment on SF-268 CNS. The TGI in the experiment on SK-MEL-28 melanoma amounted to 83.9 µM; with SK-MEL-5 melanoma, 41.5 µM; in the experiment on UACC-62 melanoma, 37.9 µM; with UO-31 renal, 49.4 µM.

With `CCc1ccc2nccc(NCCCN(C)C)c2c1[N+](=O)[O-]`, the TGI in the experiment on ACHN renal, in the experiment with CCRF-CEM leukemia, with KM12 colon, in the experiment with LOX IMVI melanoma, with MDA-MB-435 and with SF-268 CNS was over 100 µM in each case. Further, the TGI in the experiment on SK-MEL-28 melanoma, with SK-MEL-5 melanoma, in the experiment with UACC-62 melanoma and with UO-31 renal was over 100 µM each time.

For the compound `CCOC(=O)C(C(=O)OCC)C(=O)c1ccccc1C(=O)c1ccccc1`, the TGI with ACHN renal, in the experiment on CCRF-CEM leukemia, in the experiment on KM12 colon, in the experiment with LOX IMVI melanoma, in the experiment with MDA-MB-435 and in the experiment on SF-268 CNS was over 100 µM each time. Also, the TGI with SK-MEL-5 melanoma, in the experiment on UACC-62 melanoma and in the experiment on UO-31 renal was over 100 µM throughout.

Regarding `Cc1ccc2nc(-c3ccc(N)c4ccccc34)[nH]c2c1`, the GI50 with ACHN renal was 0.987 µM; in the experiment on CCRF-CEM leukemia, 0.0382 µM; with KM12 colon it was 2.46 µM; in the experiment on LOX IMVI melanoma, 0.0801 µM; in the experiment with MDA-MB-435 it was 0.187 µM; with SK-MEL-28 melanoma it was 3.38 µM. In addition, the GI50 is under 0.0147 µM with UACC-62 melanoma and 0.437 µM in the experiment on UO-31 renal. Moreover, the TGI with ACHN renal was 37.1 µM; in the experiment with CCRF-CEM leukemia it was 2.1 µM; with KM12 colon it was 13.5 µM; in the experiment with LOX IMVI melanoma it was 15.2 µM; in the experiment with MDA-MB-435, 0.444 µM; in the experiment on SF-268 CNS it was over 31.6 µM. In addition, the TGI with SK-MEL-28 melanoma was over 54.1 µM; in the experiment on SK-MEL-5 melanoma, 1.73 µM; with UACC-62 melanoma it was 17.2 µM; in the experiment on UO-31 renal it was 36.4 µM.

With `C=C1C(OC/C=C/COC2O[C@@H]3O[C@@]4(C)CC[C@H]5[C@H](C)CC[C@@H](C2=C)[C@@]35OO4)O[C@@H]2O[C@@]3(C)CC[C@H]4[C@H](C)CC[C@@H]1[C@@]24OO3` (some centres undefined), the GI50 with ACHN renal was 1.72 µM; in the experiment on CCRF-CEM leukemia, 0.0325 µM; in the experiment on KM12 colon, under 0.024 µM; with LOX IMVI melanoma, 0.14 µM; in the experiment with MDA-MB-435 it was 0.301 µM; with SF-268 CNS, 5.87 µM. The GI50 is 12.3 µM with SK-MEL-28 melanoma, 3.58 µM with SK-MEL-5 melanoma, 2.01 µM in the experiment with UACC-62 melanoma and 2.23 µM in the experiment with UO-31 renal. For the same compound, the TGI in the experiment on ACHN renal is 17.3 µM; in the experiment with CCRF-CEM leukemia, over 40 µM; with KM12 colon, 0.778 µM; with LOX IMVI melanoma, 2.09 µM; in the experiment on MDA-MB-435 it was 21.5 µM; with SF-268 CNS, 30.9 µM. Moreover, the TGI with SK-MEL-28 melanoma was 52.2 µM; in the experiment with SK-MEL-5 melanoma it was 27.3 µM; with UACC-62 melanoma it was 69.1 µM; in the experiment on UO-31 renal, over 39.4 µM.

Regarding `CCN(CC)CCn1c2ccc(OC)cc2c2sc3cc(OC)ccc3c(=O)c21`, the GI50 in the experiment on ACHN renal is 1 µM; in the experiment with KM12 colon, 2 µM; in the experiment with LOX IMVI melanoma, 1.3 µM; with MDA-MB-435, 1.73 µM; in the experiment with SF-268 CNS it was 1.87 µM; in the experiment with SK-MEL-28 melanoma, 1.7 µM. The GI50 with SK-MEL-5 melanoma is 1.74 µM; in the experiment on UACC-62 melanoma, 1.8 µM; in the experiment on UO-31 renal, 1.35 µM. For the same compound, the TGI with ACHN renal is 2.77 µM; in the experiment on KM12 colon it was 4.32 µM; with LOX IMVI melanoma it was 2.74 µM; in the experiment on MDA-MB-435, 3.22 µM; with SF-268 CNS, 5.35 µM; in the experiment on SK-MEL-28 melanoma it was 3.12 µM. The results for the TGI with SK-MEL-5 melanoma, in the experiment with UACC-62 melanoma and with UO-31 renal were 3.12 µM, 3.47 µM and 3.02 µM, respectively.

On to `COc1ccc(-c2ccc(-c3ccc(C(=N)N)cn3)o2)cc1Cl`, for which the GI50 in the experiment on ACHN renal is 1.69 µM; with CCRF-CEM leukemia it was 1.42 µM; with MDA-MB-435, 1.74 µM; in the experiment with SF-268 CNS, 2.67 µM; in the experiment on SK-MEL-28 melanoma, 1.69 µM; with SK-MEL-5 melanoma it was 1.6 µM. In the experiment on UO-31 renal, the GI50 is 1.43 µM. Further, the TGI was 3.1 µM in the experiment on ACHN renal; 3.78 µM with CCRF-CEM leukemia; 3.33 µM in the experiment on MDA-MB-435; 8.38 µM in the experiment with SF-268 CNS; 3.22 µM in the experiment on SK-MEL-28 melanoma; 2.97 µM in the experiment with SK-MEL-5 melanoma. For the same compound, in the experiment with UO-31 renal, the TGI amounted to 2.76 µM.

As for `CN(C)CCCCn1ccc2c1C(=O)c1c(c(O)c3ccccc3c1O)C2=O`, the GI50 with ACHN renal is 14.8 µM; in the experiment on CCRF-CEM leukemia, 1.32 µM; in the experiment on KM12 colon, 10.4 µM; in the experiment on LOX IMVI melanoma it was 10.4 µM; with MDA-MB-435 it was 2.01 µM; with SF-268 CNS it was 11 µM. Besides, the GI50 is 14.7 µM in the experiment on SK-MEL-28 melanoma and 33 µM in the experiment on UO-31 renal. Moreover, the TGI with ACHN renal is 27.9 µM; in the experiment with CCRF-CEM leukemia, 4.54 µM; in the experiment with KM12 colon, 24.4 µM; in the experiment with LOX IMVI melanoma, 24.2 µM; with MDA-MB-435, 3.71 µM; in the experiment on SF-268 CNS, 30.6 µM. For the same compound, the TGI was 28.2 µM with SK-MEL-28 melanoma and over 100 µM with UO-31 renal.

As to `OCC(CCc1c[nH]c2ccccc12)c1c[nH]c2ccccc12` (centres undefined), the TGI in the experiment with ACHN renal came out at 45.1 µM; with KM12 colon, 32.5 µM; in the experiment on LOX IMVI melanoma it was 27.3 µM; in the experiment on MDA-MB-435, 34.3 µM; in the experiment with SF-268 CNS, 32.4 µM; with SK-MEL-28 melanoma it was 36.6 µM. The TGI worked out at 30.4 µM in the experiment on SK-MEL-5 melanoma, 27 µM with UACC-62 melanoma and 25.9 µM in the experiment on UO-31 renal.
